# Where “and” joins values, the source holds several entries; their conditions need not be identical. Equal values may be shown once.
# Tested on: migraine attacks
# Experiment: Naltrexone/acetaminophen open-label pilot study, acute treatment of migraine: headache pain (4-point scale; relief score ≤1, pain-free score = 0), associated symptoms, additional meds
# Type: in vivo, human
# Method: Sixteen unique patients were enrolled in an open phase pilot study for the acute treatment of migraine attacks, insomnia, and emotional pain. Of the sixteen patients, eleven were evaluated for one migraine attack, one for two attacks, two for four attacks, one for six attacks, and one for fourteen attacks. A total of forty-one […] treatments were evaluated. Patients received a single dose of one of the following treatment options:
# The majority of the patients remained in the clinic for observation for 2 hours after dosing. They completed headache diary assessments immediately before and after dosing at time points: 7, 15, and 30 minutes; and 1, 1.5, 2, 3, 6, 12, 24, and 48 hours. Headache pain was assessed on a 4-point scale (0=none; 1=mild; 2=moderate; 3=severe). The assessment of photophobia, phonophobia, nausea, and neck/shoulder pain was assessed as present or absent. The assessment of emotional pain was recorded on a 4-point scale (0=none, 1=mild, 2=moderate, 3=severe). The assessment of difficulty sleeping or falling asleep (insomnia) was assessed on a 4-point scale (0=none, 1=mild, 2=moderate, 3=severe) at baseline, for the night before treatment and for the following nights at 24, and 48 hours. Patients recorded side effects severity at each time point. Patients recorded the time of the first rescue medication dose and all additional headache medications used within 48 hours. Patients were required to stay awake to record their assessments in the first 2 hours, sleeping was permitted thereafter. While asleep, assessments were completed according to patients' best estimation. For data analysis, it was assumed that a migraine attack is a unique patient. Patients were asked to specify (yes or no answer) to whether they experienced emotional pain symptoms such as: hurt feelings, sadness, fear, or anger. Patients who replied positively to having emotional pain were asked to specify the cause into one of the following options: relationship, work/school, money/debt, health, or loss/grief.
# [1] = 3 h, NTX/APAP 3.25 mg/325 mg, NTX 3.25 mg
# [2] = 3 h, NTX/APAP 5 mg/325 mg, NTX 5 mg
# [3] = 3 h, NTX/APAP […]325 mg, NTX 1.5 mg
# [4] = 3 h, naltrexone/acetaminophen 2.25 mg/325 mg (N=21), naltrexone 2.25 mg (N=9)
# [5] = 4 h, NTX/APAP 2.25 mg/325 mg, NTX 2.25 mg
# [6] = 4 h, NTX/APAP 3.25 mg/325 mg, NTX 3.25 mg
# [7] = 4 h, NTX/APAP 5 mg/325 mg, NTX 5 mg
# [8] = 4 h, NTX/APAP […]325 mg, NTX 1.5 mg
# [9] = 4 h, naltrexone/acetaminophen 2.25 mg/325 mg (N=21), naltrexone 2.25 mg (N=9)
# [10] = 6 h, NTX/APAP 2.25 mg/325 mg, NTX 2.25 mg
# [11] = 6 h, NTX/APAP 3.25 mg/325 mg, NTX 3.25 mg
# [12] = 6 h, NTX/APAP 5 mg/325 mg, NTX 5 mg
# [13] = 6 h, NTX/APAP […]325 mg, NTX 1.5 mg
# [14] = 6 h, naltrexone/acetaminophen 2.25 mg/325 mg (N=21), naltrexone 2.25 mg (N=9)
# [15] = 12 h, NTX/APAP 2.25 mg/325 mg, NTX 2.25 mg
smiles,measurement,setting,value
O=C1CC[C@@]2(O)[C@H]3Cc4ccc(O)c5c4[C@@]2(CCN3CC2CC2)[C@H]1O5 [naltrexone],Photophobia-free,"3 h, NTX/APAP 2.25 mg/325 mg, NTX 2.25 mg",8 (88) n (%)
same,Additional meds taken,[1],0
same,Headache pain-free,[1],3 (100) n (%)
same,Headache pain-relief,[1],3 (100) n (%)
same,Most bothersome symptom free,[1],3 (100) n (%)
same,Nausea-free,[1],3 (100) n (%)
same,Neck/shoulder pain-free,[1],3 (100) n (%)
same,Phonophobia-free,[1],3 (100) n (%)
same,Photophobia-free,[1],3 (100) n (%)
same,Additional meds taken,[2],0
same,Headache pain-free,[2],1 (100) n (%)
same,Headache pain-relief,[2],1 (100) n (%)
same,Most bothersome symptom free,[2],1 (100) n (%)
same,Nausea-free,[2],1 (100) n (%)
same,Neck/shoulder pain-free,[2],1 (100) n (%)
same,Phonophobia-free,[2],1 (100) n (%)
same,Photophobia-free,[2],1 (100) n (%)
same,Additional meds taken,[3],0
same,Headache pain-free,[3],3 (100) n (%)
same,Headache pain-relief,[3],3 (100) n (%)
same,Most bothersome symptom free,[3],3 (100) n (%)
same,Nausea-free,[3],3 (100) n (%)
same,Neck/shoulder pain-free,[3],3 (100) n (%)
same,Phonophobia-free,[3],3 (100) n (%)
same,Photophobia-free,[3],3 (100) n (%)
same,Additional meds taken,"3 h, combined doses",0
same,Headache pain-free,"3 h, combined doses",14 (88) n (%)
same,Headache pain-relief,"3 h, combined doses",16 (100) n (%)
same,Most bothersome symptom free,"3 h, combined doses",16 (100) n (%)
same,Nausea-free,"3 h, combined doses",16 (100) n (%)
same,Neck/shoulder pain-free,"3 h, combined doses",16 (100) n (%)
same,Phonophobia-free,"3 h, combined doses",16 (100) n (%)
same,Photophobia-free,"3 h, combined doses",15 (94) n (%)
same,Headache pain-free,"3 h, naltrexone 1.5 mg (N=3)",100%
same,Headache pain-free,[4],77% and 100%
same,Headache pain-relief,[4],100%
same,Most bothersome symptom-free,[4],100%
same,Headache pain-free,"3 h, naltrexone/acetaminophen 3.25 mg/325 mg (N=3), naltrexone 3.25 mg (N=3)",100%
same,Additional meds taken,[5],0 (0)
same,Headache pain-free,[5],6 (66) n (%)
same,Headache pain-relief,[5],8 (88) n (%)
same,Most bothersome symptom-free,[5],8 (88) n (%)
same,Nausea-free,[5],8 (88) n (%)
same,Neck/shoulder pain-free,[5],9 (100) n (%)
same,Phonophobia-free,[5],8 (88) n (%)
same,Photophobia-free,[5],7 (77) n (%)
same,Additional meds taken,[6],0
same,Headache pain-free,[6],3 (100) n (%)
same,Headache pain-relief,[6],3 (100) n (%)
same,Most bothersome symptom-free,[6],3 (100) n (%)
same,Nausea-free,[6],3 (100) n (%)
same,Neck/shoulder pain-free,[6],3 (100) n (%)
same,Phonophobia-free,[6],3 (100) n (%)
same,Photophobia-free,[6],3 (100) n (%)
same,Additional meds taken,[7],0
same,Headache pain-free,[7],1 (100) n (%)
same,Headache pain-relief,[7],1 (100) n (%)
same,Most bothersome symptom-free,[7],1 (100) n (%)
same,Nausea-free,[7],1 (100) n (%)
same,Neck/shoulder pain-free,[7],1 (100) n (%)
same,Phonophobia-free,[7],1 (100) n (%)
same,Photophobia-free,[7],1 (100) n (%)
same,Additional meds taken,[8],0
same,Headache pain-free,[8],3 (100) n (%)
same,Headache pain-relief,[8],3 (100) n (%)
same,Most bothersome symptom-free,[8],3 (100) n (%)
same,Nausea-free,[8],3 (100) n (%)
same,Neck/shoulder pain-free,[8],3 (100) n (%)
same,Phonophobia-free,[8],3 (100) n (%)
same,Photophobia-free,[8],3 (100) n (%)
same,Additional meds taken,"4 h, combined doses",0
same,Headache pain-free,"4 h, combined doses",13 (81) n (%)
same,Headache pain-relief,"4 h, combined doses",15 (94) n (%)
same,Most bothersome symptom-free,"4 h, combined doses",15 (94) n (%)
same,Nausea-free,"4 h, combined doses",15 (94) n (%)
same,Neck/shoulder pain-free,"4 h, combined doses",16 (100) n (%)
same,Phonophobia-free,"4 h, combined doses",15 (94) n (%)
same,Photophobia-free,"4 h, combined doses",14 (88) n (%)
same,Headache pain-free,"4 h, naltrexone 1.5 mg (N=3)",100%
same,Headache pain-free,[9],66% and 100%
same,Headache pain-relief,[9],88%
same,Most bothersome symptom-free,[9],88%
same,Headache pain-free,"4 h, naltrexone/acetaminophen 3.25 mg/325 mg (N=3), naltrexone 3.25 mg (N=3)",100%
same,Additional meds taken,[10],0 (0)
same,Headache pain-free,[10],7 (77) n (%)
same,Headache pain-relief,[10],9 (100) n (%)
same,Most bothersome symptom-free,[10],9 (100) n (%)
same,Nausea-free,[10],9 (100) n (%)
same,Neck/shoulder pain-free,[10],9 (100) n (%)
same,Phonophobia-free,[10],9 (100) n (%)
same,Photophobia-free,[10],8 (88) n (%)
same,Additional meds taken,[11],0
same,Headache pain-free,[11],3 (100) n (%)
same,Headache pain-relief,[11],3 (100) n (%)
same,Most bothersome symptom-free,[11],3 (100) n (%)
same,Nausea-free,[11],3 (100) n (%)
same,Neck/shoulder pain-free,[11],3 (100) n (%)
same,Phonophobia-free,[11],3 (100) n (%)
same,Photophobia-free,[11],3 (100) n (%)
same,Additional meds taken,[12],0
same,Headache pain-free,[12],1 (100) n (%)
same,Headache pain-relief,[12],1 (100) n (%)
same,Most bothersome symptom-free,[12],1 (100) n (%)
same,Nausea-free,[12],1 (100) n (%)
same,Neck/shoulder pain-free,[12],1 (100) n (%)
same,Phonophobia-free,[12],1 (100) n (%)
same,Photophobia-free,[12],1 (100) n (%)
same,Additional meds taken,[13],0
same,Headache pain-free,[13],3 (100) n (%)
same,Headache pain-relief,[13],3 (100) n (%)
same,Most bothersome symptom-free,[13],3 (100) n (%)
same,Nausea-free,[13],3 (100) n (%)
same,Neck/shoulder pain-free,[13],3 (100) n (%)
same,Phonophobia-free,[13],3 (100) n (%)
same,Photophobia-free,[13],3 (100) n (%)
same,Additional meds taken,"6 h, combined doses",0
same,Headache pain-free,"6 h, combined doses",14 (88) n (%)
same,Headache pain-relief,"6 h, combined doses",16 (100) n (%)
same,Most bothersome symptom-free,"6 h, combined doses",16 (100) n (%)
same,Nausea-free,"6 h, combined doses",16 (100) n (%)
same,Neck/shoulder pain-free,"6 h, combined doses",16 (100) n (%)
same,Phonophobia-free,"6 h, combined doses",16 (100) n (%)
same,Photophobia-free,"6 h, combined doses",15 (94) n (%)
same,Headache pain-free,"6 h, naltrexone 1.5 mg (N=3)",100%
same,Headache pain-free,[14],77% and 100%
same,Headache pain-relief,[14],100%
same,Most bothersome symptom-free,[14],100%
same,Headache pain-free,"6 h, naltrexone/acetaminophen 3.25 mg/325 mg (N=3), naltrexone 3.25 mg (N=3)",100%
same,Additional meds taken,[15],0 (0)
same,Headache pain-free,[15],7 (77) n (%)
same,Headache pain-relief,[15],9 (100) n (%)
same,Most bothersome symptom-free,[15],9 (100) n (%)

# Source: patent publication US11058680B2, “Combinations of opioid/TLR4 antagonists and acetaminophen for use in the treatment of emotional pain and insomnia” (Allodynic Threapeutics, LLC, priority 2016, dated 2021)
